Measured values taken from article PMC6321117, “Sulfonamide Inhibition Studies of a New β-Carbonic Anhydrase from the Pathogenic Protozoan Entamoeba histolytica” (International Journal of Molecular Sciences, 2018).
pKi: −log10 of the molar value. Like-named read-outs stand apart in the source and are kept apart here.

Legend:
[1] = molecular target: hCA I; conditions: human recombinant isozyme, α class, stopped flow CO2 hydrase assay; cited from earlier work
[2] = molecular target: T1, EhiCA (β-carbonic anhydrase) (Entamoeba histolytica, UniProt C4LXK3); assay: biochemical
T1 sequence (C4LXK3 1-188): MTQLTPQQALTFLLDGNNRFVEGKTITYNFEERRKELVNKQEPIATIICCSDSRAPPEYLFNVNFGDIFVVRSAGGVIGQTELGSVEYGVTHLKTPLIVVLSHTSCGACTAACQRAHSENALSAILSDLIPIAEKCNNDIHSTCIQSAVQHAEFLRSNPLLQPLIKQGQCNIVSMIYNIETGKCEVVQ
Experimental: An Sx.18Mv-R Applied Photophysics (Oxford, UK) stopped-flow instrument has been used to assay the catalytic activity of various CA isozymes for CO2 hydration reaction. […] The uncatalyzed rates were determined in the same manner and subtracted from the total observed rates. Stock solutions of inhibitors (0.1 mM) were prepared in distilled-deionized water, and dilutions up to 1 nM were done thereafter with the assay buffer. Enzyme and inhibitor solutions were pre-incubated together for 15 min before assay, to allow for the formation of the enzyme–inhibitor complex. The inhibition constants were obtained by non-linear least-squares methods using PRISM 3 and the Cheng–Prusoff equation, as reported earlier.

| Compound | pKi [1] | pKi [2] | other results |
| --- | --- | --- | --- |
| O=C1NS(=O)(=O)c2ccccc21 [SAC, saccharin] | 4.73 |  |  |
| NS(=O)(=O)c1cccc(S(N)(=O)=O)c1 [Compound 3] | 7.10 |  |  |
| NS(=O)(=O)c1ccc(C(=O)O)cc1 [Compound 18, 4-carboxy-benzenesulfonamide] |  | 6.42 |  |
| NS(=O)(=O)c1cc(Cl)c(Cl)c(S(N)(=O)=O)c1 [DCP, dichlorophenamide] |  | 6.10 |  |
| Nc1ccc(S(N)(=O)=O)cc1 [Compound 2] |  | 5.22 |  |
| CC1(C)O[C@@H]2[C@@H](CO[C@@]3(COS(N)(=O)=O)OC(C)(C)O[C@@H]23)O1 [TPM, topiramate] |  |  | pKi ([2]; KI EhiCA, β class, stopped-flow CO2 hydrase assay, 3 different assays, errors 5–10%): 5.51 |
| Cc1ccc(S(N)(=O)=O)cc1 [Compound 4] | 4.11 |  |  |
